We go through 1 substance from patent publication US20210341448A1, “SCREENING METHOD FOR THERAPEUTIC DRUG OR PROPHYLACTIC DRUG FOR TAUOPATHY AND DIAGNOSTIC METHOD FOR TAUOPATHY” (National Center for Geriatrics and Gerontology, priority 2018, published 2021).

For one assay, the target named is T1, NMDAR (Homo sapiens, UniProt Q05586).
T1 construct: endogenous in cells; host or cells: NT2-N neurons differentiated from NTERA-2 cl.D1 [NT2/D1] cells (ATCC CRL-1973)
Nature of the assay: Measurement of calcium influx through NMDAR into NT2-N cells. In kind it is cell-based. As to the method: Cultured neurons expressing NMDARs retaining physiological functions were prepared by the following procedure to evaluate the NMDAR activation ability of the tau oligomer. The NTERA-2 cl.D1[NT2/D1] cells (ATCC CRL-1973) (hereinafter described as “NT2 cell”), which are derived from a human pluripotent embryonic cancer, were adhesively cultured on 10-cm plastic dish in maintenance culture medium (high glucose DMEM (Sigma-Aldrich, D6429), 10% FBS, 100 U/ml penicillin/streptomycin) under the conditions of 37° C. and 5% CO2 for 3 to 4 days until the confluency stage was attained. The NT2 cells were detached using Accutase (Innovative Cell Technologies, #AT104), were passaged, and were maintained over a period of 50 days. The medium was replaced 3 times a week.
The maintenance-cultured NT2 cells were dispersed in a low attachment petri dish (STAR SDish9015, RIKAKEN CO., LTD.) in a concentration of 1.5×10^6 to 2.5×10^6/dish, suspension-cultured under the conditions of 37° C. and 5% CO2 on a shaker (100 rpm), and 1 day later were induced to differentiate by adding 1 μM of all-trans-retinoic acid (abcam), to thereby form spheroids. 14 days later, the spheroids were collected, seeded in a 10-cm dish coated with 5 μg/ml of poly-D-lysin (PDL) (Sigma-Aldrich)/Laminin (LAM) (iMatrix-511, Nippi Inc.) and adhesively cultured under the conditions of 37° C. and 5% CO2. From the following day, the culture was carried out by adding 3 kinds of cell division inhibitors (10 μM of uridine, 10 μM of floxuridine, and 1 μM of AraC). […]
For analysis, 5 to 10 regions of the visual field of the NT2-N cells positioned in the system were manually set and the fluorescence intensities were recorded for each region, for Cal-520, every 1 minute for 1 hour continuously at excitation wavelength 480 nm/fluorescence emission wavelength 520 nm, and for Fluo-8, every 2 seconds for 5 minutes continuously at excitation wavelength 480 nm/fluorescence emission wavelength 520 nm. […]

A further assay has as its system membrane protein (NMDAR). The assay can be described thus: Membrane protein-based sandwich ELISA. Type of assay: binding, mouse. How it is done:
Pellets of the membrane protein obtained from tau knockout brain by the procedure of the above (7-1) were dissolved in 2% cholic acid or 1% deoxycholate/buffer (50 mM of HEPES, 150 mM of NaCl, pH 7.4), and the solution was centrifuged at 4° C., 150,000×g for 30 minutes to thereby collect the supernatant to use as a membrane protein solution. The obtained membrane protein solution was applied to an ELISA plate (Sumitomo Bakelite Co., Ltd., MS-8596F) and incubated at 4° C. for 60 minutes to thereby coat the plate with the membrane protein. After washing with wash solution (0.004 to 0.008% MNG-3, 50 mM of HEPES, pH 7.4), blocking was done by adding 1% FBS-containing wash solution and incubating at 4° C. for 60 minutes. The solvent of the HT-tau oligomer sample prepared in the above (1-4) was replaced with the wash solution using a protein concentrator (10K MWCO, Pierce, 88526) to thereby prepare a tau oligomer solution of 10^−16 to 10^−6 g/ml. These solutions were applied to the plate and incubated at 4° C. for 15 to 60 minutes. Then, the plate was washed thoroughly with the wash solution and a 5% skim milk-containing wash solution was added, followed by incubating at room temperature for 30 minutes to thereby block the protein. After washing using the wash solution, an anti-HaloTag antibody/wash solution (1:1000 dilution) was added and incubated at room temperature for 30 minutes. Subsequently, the plate was washed with the wash solution, an HRP-labelled secondary antibody/wash solution (Invitrogen, A27036) (1:5000 dilution) was added and incubated at room temperature for 30 minutes. Then, chromogenic reactions were carried out using an Ultra TMB solution (Thermo Fisher Scientific, 34028) to detect the tau oligomers bound to the membrane protein.

For a further assay, the system named is NMDA receptor. The assay can be described thus: NMDAR-based sandwich ELISA. In kind it is binding, mouse. As to conditions: tau oligomer solution of 10^−11 g/ml or less.

For the substance “tau oligomer: polymer of human tau 2N4R monomers, polymerized with mouse brain extract and ATP, collected as pellets”, the “increase of intracellular calcium concentration (NMDAR activation ability)” value with NMDAR (Cal-520, NT2-N cells, 3 minutes after administration) was “has the NMDAR activation ability”. In addition, in the assay with NMDAR (Fluo-8, NT2-N cells, 100 μl of 0.03 μg/ml in HHBS), the intracellular calcium concentration entry was “increased over time”. For the same substance, in the assay on membrane protein (NMDAR) (tau oligomer solution of 10^−8 g/ml or higher), the “amount of tau oligomer bound to membrane protein” value is on record as “increased in a concentration-dependent manner”. Besides, the “binding of the tau oligomer to membrane protein” value in the assay with membrane protein (NMDAR) (tau oligomer solution of 10^−11 g/ml or lower) is “detected”. Moreover, in the assay with NMDA receptor, the “binding of the tau oligomer to the NMDA receptor” value is listed as “increased in a concentration-dependent manner”.
